# Values joined by “and” are separate entries in the source; they are usually repeats but may differ in a detail not shown here. Identical values can stand only once. Like-named read-outs stand apart in the source and are kept apart here.
# Legend:
# [1] = Mouse PK, multiple oral dosing of single compounds; type: in vivo, KM mice; conditions: for AUC(0-inf) / Cmax / Tmax / half-life: po
# Source text: Methods for combined single dosing (BGAz001–005) and dosing of single compounds multiple times (BGAz004 and BGAz005) are described in detail in the Supporting Information (PK Data).
# Report on PK results of BGAz-004 by multiple oral dosing
# 7 Materials and instrument combined dosing
# An MS2 Turnover type oscillator was purchased from IKA Work’s Guangzhou (China), and a 5415R ChromatographicanalyseswereconductedusinganAgilent1290InfinityIIhighperformanceliquidchromatography andAgilentTechnologies6470TripleQuadLC/MS.Propranolol(≥90%inpurity,internalstandard,IS)waspurchased fromtheSigmaChemicalCo.(China).Formicacid(HPLCgrade)andmethanol(HPLCgrade)werepurchasedfrom DIKMACo.(China).Allchemicalsandsolventswereanalyticalgrade.WaterwaspurifiedusingaMillipore(AK,USA) laboratoryultra-purewatersystem(0.2μmfilter).
# KMmice,weighing25–35g(BeijingVitalRiverLaboratoryAnimalTechnologyCo.,Ltd.,China)wereutilisedforthe studies.The protocols were approved by the Animal Care and Use Committee, GIBH. Animals were maintained on standard animal chow and waterad libitum, in a climate-controlled room (23±1 °C 30–70% relative humidity, a minimumof tenexchangesof roomairperhouranda12hlight/darkcycle)foroneweekpriortoexperiments.
# 9 Pharmacokinetic studies
# Compound BGAz-004 were dissolved in the solution containing DMSO (2%), ethanol (4%), Cremophor EL (4%) and ddH2O (90%).The mice were given solution with 30 mg/kg bygastric gavagefor 3 days.Whole blood samples (100μL)wereobtainedfromtheorbitalvenousplexusatthefollowingtimepointsafterthethirddaydosing:5,15,30 min and 1, 3, 5, 8, 24 hour. Whole blood samples were collected in heparinised tubes. The plasma fraction was immediately separated by centrifugation. The mice were humanely euthanasia by carbon dioxide 24 hours after […]
# 10 Plasma sample analysis
# 10.1 Standard curve sample preparation
# ThecompoundsweredissolvedinDMSO(2mg/mL)anddilutedwithtoseriesconcentration(methanol:H 2O,1:1,10 μL) and blank plasma (50 μL) were added to 1.5 mL tubes and vortexed for 3 min, then acetonitrile-containing internalstandard(150μL)wasaddedandvortexedforafurther5min,andsubsequentlyspuninacentrifugeat13000 […]
# 10.2 Plasma and preparation
# Plasmasampleswerepreparedusingaproteinprecipitationmethod.Solution(10μL,methanolH 2O,1:1)andplasma samples(50μL)wereaddedto1.5mLtubesandvortexfor3min,thenacetonitrile-containinginternalstandard(150 μL)wasaddedandvortexfor5min,andsubsequentlyspuninacentrifugeat13000× gfor40minat4°C.
# Aftercentrifugation,supernatant(100μL)wastransferto96wellplatesandanalysedbyLC-MS/MSusinganAgilent 1290InfinityIIHPLCandanAgilentTechnologies6470TripleQuadLC/MS.
# Report on PK results of BGAz-005 by multiple oral dosing
# 13 Materials and instrument combined dosing […]
# fromtheSigmaChemicalCo.(China).Formicacid(HPLCgrade)andmethanol(HPLCgrade)werepurchased from […]
# 15 Pharmacokinetic studies
# Compound BGAz-005 were dissolved in the solution containing DMSO (2%), ethanol (4%), Cremophor EL (4%) […]
# 16 Plasma sample analysis
# 16.1 Standard curve sample preparation
# 16.2 Plasma and preparation
# M. tuberculosis H37Rv = assay: Mycobacterial time kill experiments (total viable counts); type: cell-based, Mycobacterium tuberculosis; conditions: 96 μM
# BCG pTIC6-fbpA = type: cell-based, Mycobacterium bovis BCG
# BCG pTIC6-fbpB = type: cell-based, Mycobacterium bovis BCG
# BCG pTIC6-fbpC = type: cell-based, Mycobacterium bovis BCG
# M. bovis BCG = type: cell-based, Mycobacterium bovis BCG
# BCG = type: cell-based, Mycobacterium bovis BCG; conditions: 0.5 × MIC
# [2] = multiple PO 30 mg/kg, times 4, mean of animals
smiles,measurement,setting,value
Brc1cc(Br)cc(C2CC(CN3CCCC3)N2Cc2ccccc2Br)c1 (stereo not shown) [BGAz-004],AUC(0-inf),"[1]; KM, mouse, plasma, 30 mg/kg, multiple PO 30 mg/kg, times 4, mean of animals, read-out: AUC(0-∞)",5420 ng·h/mL
same,Cmax,"[1]; KM, mouse, plasma, 30 mg/kg, multiple PO 30 mg/kg, times 4, mean of animals, read-out: Cmax",364 ng/mL
same,Tmax,"[1]; KM, mouse, plasma, 30 mg/kg, multiple PO 30 mg/kg, times 4, mean of animals, read-out: Tmax",1 h
same,half-life,"[1]; KM, mouse, plasma, 30 mg/kg, multiple PO 30 mg/kg, times 4, mean of animals, read-out: t1/2z (converted)",8.07 h
same,AUC(0-inf),"[1]; KM, mouse, plasma, 30 mg/kg, multiple PO, times 4, 30 mg/kg, summary table, read-out: AUC(0-∞)",5420 ng·h/mL
same,Cmax,"[1]; KM, mouse, plasma, 30 mg/kg, multiple PO, times 4, 30 mg/kg, summary table, read-out: Cmax",364 ng/mL
same,half-life,"[1]; KM, mouse, plasma, 30 mg/kg, multiple PO, times 4, 30 mg/kg, summary table, read-out: T1/2 (converted)",8.07 h
same,Tmax,"[1]; KM, mouse, plasma, 30 mg/kg, multiple PO, times 4, 30 mg/kg, summary table, read-out: Tmax",1 h
same,AUC(0-inf),"[1]; KM, mouse, plasma, 30 mg/kg, multiple daily dosing 4 × 30 mg/kg PO, read-out: AUC0-inf",5420 ng·h/mL
same,Cmax,"[1]; KM, mouse, plasma, 30 mg/kg, multiple daily dosing 4 × 30 mg/kg PO, read-out: Cmax (Mouse, P.O.)",363 ng/mL
same,half-life,"[1]; KM, mouse, plasma, 30 mg/kg, multiple daily dosing 4 × 30 mg/kg PO, read-out: T1/2 (Mouse, P.O.) (converted)",8.1 h
same,Tmax,"[1]; KM, mouse, plasma, 30 mg/kg, multiple daily dosing 4 × 30 mg/kg PO, read-out: Tmax (Mouse, P.O.)",1 h
same,concentration at 0.083 h,"[1]; KM, mouse, plasma, multiple PO 30 mg/kg, times 4, 0.083 h",214 nM and 115 ng/mL
same,concentration at 0.25 h,"[1]; KM, mouse, plasma, multiple PO 30 mg/kg, times 4, 0.25 h",361 nM and 195 ng/mL
same,concentration at 0.5 h,"[1]; KM, mouse, plasma, multiple PO 30 mg/kg, times 4, 0.5 h",590 nM and 319 ng/mL
same,concentration at 1 h,"[1]; KM, mouse, plasma, multiple PO 30 mg/kg, times 4, 1 h",674 nM and 364 ng/mL
same,concentration at 3 h,"[1]; KM, mouse, plasma, multiple PO 30 mg/kg, times 4, 3 h",594 nM and 321 ng/mL
same,concentration at 5 h,"[1]; KM, mouse, plasma, multiple PO 30 mg/kg, times 4, 5 h",268 ng/mL and 496 nM
same,concentration at 8 h,"[1]; KM, mouse, plasma, multiple PO 30 mg/kg, times 4, 8 h",243 ng/mL and 450 nM
same,concentration at 24 h,"[1]; KM, mouse, plasma, multiple PO 30 mg/kg, times 4, 24 h",63.7 ng/mL and 118 nM
same,AUC(0-t),"[1]; KM, mouse, plasma, multiple PO 30 mg/kg, times 4, mean of animals",4760 ng·h/mL
same,CL/F,"[1]; KM, mouse, plasma, multiple PO 30 mg/kg, times 4, mean of animals, read-out: CLz/F (converted)",95.4 mL/min/kg
same,MRT last,"[1]; KM, mouse, plasma, multiple PO 30 mg/kg, times 4, mean of animals, read-out: MRT(0-t)",7.85 h
same,MRT inf,"[1]; KM, mouse, plasma, multiple PO 30 mg/kg, times 4, mean of animals, read-out: MRT(0-∞)",11.7 h
same,Vd/F,"[1]; KM, mouse, plasma, multiple PO 30 mg/kg, times 4, mean of animals, read-out: Vz/F",67.5 L/kg
same,k el,"[1]; KM, mouse, plasma, multiple PO 30 mg/kg, times 4, mean of animals, read-out: λz (converted)",2.89e-05 s⁻¹
same,AUMC(0-t),[1]; [2],36514.994 h*h*μg
same,AUMC(0-∞),[1]; [2],62413.77 h*h*μg
same,C_last,[1]; [2],46.151 µg
same,R_AUC(t/∞),[1]; [2],87.55%
same,VRT(0-t),[1]; [2],41.471 h^2
same,VRT(0-∞),[1]; [2],162.525 h^2
same,"T1/2 (Mouse, P.O.)","[1]; multiple daily dosing 4 × 30 mg/kg PO, 30 mg/kg",8.07 h
same,reduction of total viable count,M. tuberculosis H37Rv; after 6 days of exposure,0.79 ± 2.20 log10 CFU mL^–1
same,reduction of total viable count,M. tuberculosis H37Rv; after 14 days' exposure,1.90 ± 1.28 log10 CFU mL^–1
same,BCG pTIC6-fbpA MIC,BCG pTIC6-fbpA,20 µM
same,BCG pTIC6-fbpB MIC,BCG pTIC6-fbpB,28 µM
same,increase in MIC upon overexpression of FbpB,BCG pTIC6-fbpB,two-fold increase
same,BCG pTIC6-fbpC MIC,BCG pTIC6-fbpC,34 µM
same,increase in MIC upon overexpression of FbpC,BCG pTIC6-fbpC,two-fold increase
same,"log2FoldChange, gene BCG_0001",M. bovis BCG,-0.1191
same,"log2FoldChange, gene BCG_0002",M. bovis BCG,-0.5569
same,"log2FoldChange, gene BCG_0003",M. bovis BCG,-0.5971
same,"log2FoldChange, gene BCG_0004",M. bovis BCG,-0.2384
same,"log2FoldChange, gene BCG_0005",M. bovis BCG,0.5266
same,TMM and TDM in cell envelope lipids,BCG,significant reduction

# Reference: PMC10895678 (Journal of Medicinal Chemistry, 2024)
